According to PMC6895180 (Nature Communications, 2019):
Values joined by “and” are separate entries in the source; they are usually repeats but may differ in a detail not shown here. Equal values may be shown once. Read-outs that look alike come from different tables or passages of the source. Marks after values point to notes of the source that are not given here.

Tests used:
[1] = system: T. b. brucei Lister 427WT; assay: Drug susceptibility test (resazurin), Lister 427WT; format: cell-based, Trypanosoma brucei brucei
How it was run: (§1)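 Trypanosomes (2 × 10^4 cells/well) exposed 48 h at 37 °C/5% CO2 in HMI-9/FBS to 23-step doubling dilutions from 100 µM, then resazurin added for a further 24 h. Fluorescence fitted to a variable-slope sigmoid curve.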

[2] = system: TbAT1-KO: T. brucei cell line lacking the TbAT1(P2) transporter gene; assay: microbe, parasite or virus in culture; format: cell-based, Trypanosoma brucei brucei; conditions: for RF (TbAT1-KO): resistance factor: ratio of EC50 of resistant and Lister 427WT
How it was run: as §1

[3] = system: ISMR1: isometamidium-resistant T. brucei cell line; assay: microbe, parasite or virus in culture; format: cell-based, Trypanosoma brucei brucei; conditions: for RF (ISMR1): resistance factor vs Lister 427WT
How it was run: as §1

[4] = system: T. b. rhodesiense STIB-900; assay: microbe, parasite or virus in culture; format: cell-based, Trypanosoma brucei rhodesiense; conditions: for SI (MRC/T.b. rhodesiense): selectivity index
[5] = molecular target: P2 transporter (TbAT1) (Trypanosoma brucei brucei, UniProt Q9Y0I0); assay: cell-based; conditions: for P2 transporter ΔG^0: Gibbs free energy from −RT ln(Ki); for IC50: P2 transporter IC50, single experiments, [L] 0.033 or 0.1 per experiment; for Ki: P2 transporter Ki; for P2 transporter δ(ΔG^0): in comparison to adenosine
Experimental: Non-specific association of radiolabel with the cell pellet was determined using an identical incubation in the presence of saturating (1 mM) unlabelled adenosine.

[6] = Cytotoxicity on MRC-5 fibroblasts (resazurin); format: cell-based, human; conditions: human
How it was run: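 MRC-5SV2 cells (3 × 10^4 cells mL^−1) in MEM with 5% foetal calf serum exposed to compounds for 3 days at 37 °C, 5% CO2. Viability read by resazurin fluorescence (10 µg mL^−1 final, 4 h; λex 550/λem 590 nm) against untreated and medium controls; EC50 derived.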

[7] = system: T. brucei s427 wildtype cells; assay: Microscopy of trypanosome cell morphology (DAPI); format: cell-based, Trypanosoma brucei; conditions: 2× and 5× EC50; 6 h and especially 12 h
Experimental: Growth assays of T. brucei
To test the effect of the novel adenosine analogues on the growth of T. brucei BSF, s427 wildtype cells were seeded at 1×10^5 cells mL-1 in 5 mL of HMI-9 medium with 10% FBS and treated with compounds […]
cells were also incubated in drug-free medium under the same conditions. 2 μM of 2’-deoxycoformycin were added to all cultures to avoid any potential effect of serum adenosine deaminase on the activity of test compounds and cordycepin.1
Cells were manually counted in Neubauer chambers at 0, 2, 4, 6, 8, 12, 24, 36 and 48 h after addition of the drugs. At 6 and 12 h, cells were also collected and fixed to have their structure checked by […]
Wash-out experiments with T. brucei
A culture of bloodstream form T. brucei 427WT, at mid-log phase of growth, was harvested and resuspended at a density of 10^5 cells mL-1, in fresh medium containing either no test compound, or […]
The cultures were incubated under standard conditions (37 °C/5% CO2) and cell counts were performed manually using a haemocytometer under phase contrast microscopy, every 24 h. The culture in continuous presence of analogue 9 was split in two at 8 h and 48 h (as indicated with arrows in Supplementary Figure S2). The split cultures were centrifuged and resuspended in the same volume of either fresh medium without test compound or fresh medium with the same concentration of compound 9 as before, reincubated. The detection limit for the manual cell count was 10^4 cells mL-1.
After 6 and 12 h after addition of drugs, approximately 2×10^6 cells were harvested from each group and applied to glass slides pre-treated with poly-L-lysine, left to settle for 5 min and fixed with 4% formaldehyde for 4 min. The formaldehyde was neutralised by addition of 100 mM glycine (20 min).
Cells were washed once with PBS and blocked for 1 h with 1% BSA/0.2% Tween-20 in PBS. Cells were […]
A coverslip was then placed on top of the wells and sealed with nail varnish.
Metabolic stability of nucleoside analogue 9 […]
and B (Corning) were kept at -20°C. The test compound and the reference compounds diclofenac (MW […]

[8] = Trypanosoma brucei, source data, read-out: s427 EC50, AVG
[9] = Trypanosoma brucei, source data, read-out: s427 EC50, single determinations
[10] = source data, read-out: s427 EC50, single determinations
[11] = Trypanosoma brucei, read-out: TbAT1-KO EC50, mean and SEM, n = 3
[12] = Trypanosoma brucei, read-out: TbAT1-KO EC50, single determinations, source data
[13] = read-out: TbAT1-KO EC50, single determinations, source data
[14] = Trypanosoma brucei, mean and SEM, n = 3, read-out: ISMR1 EC50
[15] = Trypanosoma brucei, source data, read-out: ISMR1 EC50, AVG
[16] = Trypanosoma brucei, source data, read-out: ISMR1 EC50, single determinations
[17] = source data, read-out: ISMR1 EC50, single determinations
[18] = Trypanosoma brucei, RHODESIENSE, Alamar blue cell viability assay, mean and SEM, read-out: T. b. rhodesiense EC50
[19] = Trypanosoma brucei, RHODESIENSE, source data, read-out: T. brucei rhodesiense EC50, Average
[20] = Trypanosoma brucei, RHODESIENSE, source data, read-out: T. brucei rhodesiense EC50, single measurements
[21] = source data, read-out: T. brucei rhodesiense EC50, single measurements
[22] = single experiments, Cheng–Prusoff from IC50
[23] = Trypanosoma brucei, mean and SEM, n = 3, read-out: Lister 427 EC50
[24] = Trypanosoma brucei, read-out: TbAT1-KO EC50, AVG, source data
[25] = inhibition of [3H]adenosine uptake, mean ± SEM, n = 3
[26] = MRC-5SV2 human embryonic lung fibroblasts, cytotoxicity in human MRC-5 fibroblasts, mean and SEM, read-out: MRC-5 EC50

Sequence of P2 transporter (TbAT1) (Q9Y0I0 entry or part of it): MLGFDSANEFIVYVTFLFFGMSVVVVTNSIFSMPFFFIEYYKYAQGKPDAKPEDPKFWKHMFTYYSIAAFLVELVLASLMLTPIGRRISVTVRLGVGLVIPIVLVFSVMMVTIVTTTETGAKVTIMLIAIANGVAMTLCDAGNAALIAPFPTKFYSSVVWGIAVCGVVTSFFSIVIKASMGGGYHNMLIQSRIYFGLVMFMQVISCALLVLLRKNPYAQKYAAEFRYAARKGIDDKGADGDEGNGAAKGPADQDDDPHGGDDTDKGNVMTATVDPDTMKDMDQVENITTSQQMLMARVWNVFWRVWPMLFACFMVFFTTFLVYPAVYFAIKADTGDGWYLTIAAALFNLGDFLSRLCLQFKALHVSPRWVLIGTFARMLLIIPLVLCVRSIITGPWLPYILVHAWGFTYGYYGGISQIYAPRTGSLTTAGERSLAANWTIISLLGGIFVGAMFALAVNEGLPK

With Nc1ncnc2c1c(Br)cn2[C@@H]1O[C@H](CO)[C@@H](O)[C@H]1O [Compound 8, 7-bromotubercidin] the EC50 ([1]; Trypanosoma brucei, read-out: Lister 427 EC50, mean and SEM, n = 3) was 320 ± 270 nM, the EC50 [1, 8] was 315 nM and the EC50 [1, 9] was 364 nM. For the same compound, the EC50 [1, 10] was 309 nM and 273 nM, the EC50 [2, 11] was 825 ± 17.3 nM and the EC50 [2, 12] was 820 nM. The EC50 [2, 13] was 858 nM and 798 nM, the “RF (TbAT1-KO)” value [2] was 2.62*** and the EC50 [3, 14] was 1530 ± 157 nM. The EC50 [3, 15] was 1530 nM, the EC50 [3, 16] was 1390 nM and the “RF (ISMR1)” value [3] was 4.85**. The EC50 [3, 17] was 1100 nM and 2070 nM and 1520 nM, the EC50 [4, 18] was 120 ± 20 nM and the EC50 [4, 19] was 120 nM. For the same compound, the EC50 [4, 20] was 106 nM, the “SI (MRC/T.b. rhodesiense)” value [4] was 107 and the EC50 [4, 21] was 136 nM. For the same compound, the “P2 transporter ΔG^0” value [5] was -7.77 kcal/mol, the IC50 [5] was 2520 nM and 3860 nM and 4390 nM and the Ki ([5]; AVG, source data) was 3020 nM. The Ki [5, 22] was 2110 nM and 3240 nM and 3690 nM, the “P2 transporter δ(ΔG^0)” value [5] was 0.789 kcal/mol and the EC50 at 3 day ([6]; MRC-5 EC50, Average) was 12800 nM. For the same compound, the EC50 at 3 day ([6]; MRC-5 EC50, single measurements) was 8180 nM and the cell morphology [7] was “clear aberrant morphology”.

Nc1ncnc2c1ccn2[C@@H]1O[C@H](CO)C[C@H]1O [Compound 9, 3’-deoxytubercidin] showed an EC50 [1, 23] of 33 ± 1 nM, an EC50 [1, 8] of 33.3 nM and an EC50 [1, 9] of 32 nM. The EC50 [1, 10] was 35.5 nM and 32.4 nM, the EC50 [2, 24] was 374 nM and the EC50 [2, 11] was 375 ± 12 nM. The EC50 [2, 12] was 370 nM, the EC50 [2, 13] was 397 nM and 357 nM and the EC50 [3, 14] was 32.4 ± 3.8 nM. For the same compound, the EC50 [3, 16] was 39.2 nM, the “RF (ISMR1)” value [3] was 0.97 and the EC50 [3, 17] was 32 nM and 26 nM. The EC50 [4, 18] was 0.52 ± 0.04 nM, the EC50 [4, 19] was 0.521 nM and the EC50 [4, 20] was 0.484 nM. For the same compound, the “SI (MRC/T.b. rhodesiense)” value [4] was >123,077, the EC50 [4, 21] was 0.557 nM and the “P2 Ki, fold lower than the Km value for adenosine” value [5] was “roughly 3 fold”. For the same compound, the “energy advantage at P2 versus adenosine” value [5] was “roughly 3 kJ mol^−1”, the “P2 transporter ΔG^0” value [5] was -9.3 kcal/mol and the IC50 [5] was 133 nM and 281 nM and 171 nM and 85 nM. For the same compound, the Ki ([5]; AVG, source data) was 147 nM, the Ki [5, 25] was 149 ± 30 nM and the Ki [5, 22] was 111 nM and 236 nM and 160 nM and 80 nM. For the same compound, the “P2 transporter δ(ΔG^0)” value [5] was -0.741 kcal/mol, the EC50 at 3 day [6, 26] was over 64000 nM and the EC50 at 3 day ([6]; MRC-5SV2 human embryonic lung fibroblasts, source data, read-out: MRC-5 EC50, single measurements) was over 64000 nM. For the same compound, the cell morphology [7] was “clear aberrant morphology”.

Work on Nc1ncnc2c1c(Br)cn2[C@@H]1O[C@H](CO)C[C@H]1O [Compound 10, 3’-deoxy-7-Br-tubercidin] yielded an EC50 [1, 23] of 1.8 ± 0.3 nM, an EC50 [1, 8] of 1.76 nM and an EC50 [2, 24] of 2.12 nM. For the same compound, the EC50 [2, 11] was 2.1 ± 0.25 nM, the EC50 [2, 13] was 1.94 nM and the “RF (TbAT1-KO)” value [2] was 1.2. For the same compound, the EC50 [3, 14] was 1.1 ± 0.2 nM, the EC50 [3, 15] was 1.11 nM and the “RF (ISMR1)” value [3] was 0.63. The EC50 [4, 18] was 0.4 ± 0.09 nM, the EC50 [4, 19] was 0.398 nM and the “SI (MRC/T.b. rhodesiense)” value [4] was 37,500. The EC50 [4, 21] was 0.5 nM, the “P2 transporter ΔG^0” value [5] was -8.58 kcal/mol and the IC50 [5] was 620 nM and 790 nM and 250 nM. For the same compound, the Ki ([5]; AVG, source data) was 500 nM, the Ki [5, 25] was 502 ± 140 nM and the Ki [5, 22] was 520 nM and 740 nM and 240 nM. The “P2 transporter δ(ΔG^0)” value [5] was -0.024 kcal/mol, the EC50 at 3 day [6, 26] was 15000 ± 3000 nM and the cell morphology [7] was “clear aberrant morphology”.
